Measurements reported in US20240293391A1, “ISOQUINOLINE AND PYRIDINE BASED CXCR4 ANTAGONISTS” (Katholieke Universiteit Leuven, priority 2021, published 2024).

Legend:
HIV-1 NL4-3 = assay: Anti-HIV assay in MT-4 cells, HIV-1 NL4-3; assay type: cell-based; conditions: Human immunodeficiency virus 1, NL43, MT4; Concentration required to achieve 50% protection of MT-4 cells against HIV-induced cytopathicity
Experimental: (§1) First, the ability of the compounds to compete with fluorescently labeled CXCL12 (CXCL12^AF647) for binding at CXCR4 was determined. Secondly, since binding of CXCL12 to CXCR4 results into a transient increase of cytosolic calcium levels, the inhibition of this CXCL12-induced calcium mobilization by the various compounds was also investigated. […] In parallel, the cytotoxicity of the compounds for uninfected MT-4 cells was assessed. […] The anti-HIV assays in MT-4 cells been described in detail before [Hout et al. cited above; […] et al. AIDS 2004, 18, 2115-2125]. […] After five days, the cytopathic effect was checked microscopically and cell viability (i.e. viral replication) was evaluated using the MTS/PES-based CellTiter 96 Aqueous One Solution Cell Proliferation assay (Promega, Fitchburg, WI, USA). Absorbance was recorded using the VersaMax ELISATM microplate reader (Molecular Devices) and analyzed with the Softmax Pro® software (Molecular Devices).

[1] = Cytotoxicity for mock-infected (uninfected) MT-4 cells; assay type: cell-based; conditions: human, mock-infected (uninfected) MT-4 cells, Concentration required to reduce the viability of mock-infected MT4 cells by 50%
Experimental: as §1

CXCR4 [2] = target: T1, CXCR4 (Homo sapiens, UniProt P61073); assay: CXCR4 calcium mobilization assay (CXCL12-induced, U87.CD4.CXCR4 cells, FLIPR); assay type: cell-based; conditions: Concentration needed to inhibit CXCL12-induced calcium signaling by 50%
T1 sequence (P61073 whole entry): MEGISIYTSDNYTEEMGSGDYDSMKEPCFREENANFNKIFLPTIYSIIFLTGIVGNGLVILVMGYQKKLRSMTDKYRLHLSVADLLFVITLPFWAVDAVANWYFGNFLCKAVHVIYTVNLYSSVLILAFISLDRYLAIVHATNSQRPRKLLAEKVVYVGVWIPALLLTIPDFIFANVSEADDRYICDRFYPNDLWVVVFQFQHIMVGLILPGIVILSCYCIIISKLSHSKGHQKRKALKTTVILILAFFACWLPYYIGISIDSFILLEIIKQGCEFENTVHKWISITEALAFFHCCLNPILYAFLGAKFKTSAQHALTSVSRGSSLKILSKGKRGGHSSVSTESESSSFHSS
Experimental: (§2) First, the ability of the compounds to compete with fluorescently labeled CXCL12 (CXCL12^AF647) for binding at CXCR4 was determined. […] Finally, given the role of CXCR4 as a major coreceptor for HIV entry, the antiviral activity of the compounds against the X4-tropic wild type HIV-1 NL4-3 strain and the HIV-2 ROD strain was determined in MT-4 cells. In parallel, the cytotoxicity of the compounds for uninfected MT-4 cells was assessed.
The calcium mobilization assay has been described in detail previously [Claes et al. JoVE 2018, 132, 1-9]. U87.CD4.CXCR4 cells (2×10^4 cells per well in DMEM/10% FBS/0.01M HEPES) were seeded in gelatin-coated (Sigma-Aldrich; 0.1% gelatin in DPBS) black-walled 96-well plates and incubated overnight at 37° ° C. and 5% CO2. The next day, cells were loaded with the fluorescent calcium indicator Fluo-2 acetoxymethyl (AM) ester (4 μM; Abcam) and incubated at room temperature in the dark for 45 minutes. Then, cells were incubated with various concentrations of the compounds for 10 minutes prior to addition of 6.25 nM CXCL12 (in assay buffer). Fluctuations in intracellular calcium levels were measured in real time by the FLIPR Tetra® (Molecular Devices, Sunnyvale, CA, USA) in all 96 wells simultaneously. The response over baseline (after CXCL12 addition) was calculated with the ScreenWorks 4.0® software (Molecular Devices) by dividing the obtained relative light units (RLUs) through the base line measured just before CXCL12 addition. From this the IC50 value for each compound was determined taking into account the negative (i.e. untreated cells without CXCL12 stimulation) and positive (i.e. untreated cells with CXCL12 addition) control samples.

HIV-2 ROD = assay: Anti-HIV assay in MT-4 cells, HIV-2 ROD; assay type: cell-based; conditions: Human immunodeficiency virus 2, MT4; Concentration required to achieve 50% protection of MT-4 cells against HIV-induced cytopathicity
Experimental: as §1

CXCR4 [3] = target: T1, CXCR4; assay: CXCR4 binding assay (competition with CXCL12^AF647 on Jurkat cells, flow cytometry); parameters: endogenous in cells; host or cells: Jurkat cells
Experimental: as §2
The CXCL12^AF647 binding assay with Jurkat cells has been described previously [Schoofs et al. JoVE 2018, 133, 1-8]. Briefly, Jurkat cells were resuspended in assay buffer [Hank's Balanced Salt Solution (HBSS, Thermo Fisher Scientific), 20 mM HEPES buffer, 0.2% bovine serum albumin (Sigma-Aldrich), pH 7.4] at 3×10^5 cells per sample and then treated with various concentrations of the compound at room temperature for 15 minutes. Afterwards, the cells were incubated with 2.9 nM CXCL12^AF647 (in assay buffer) at room temperature for 30 minutes in the dark. Cells were fixed in 1% paraformaldehyde in DPBS and specific CXCL12^AF647 binding [i.e. mean fluorescence intensity (MFI)] was quantified by flow cytometry (FACSArray™; Becton Dickinson). Data were analyzed with FlowJo® Software. The 50% inhibitory concentration (IC50) was calculated for each compound relative to the negative (i.e. autofluorescence of untreated and unlabeled cells) and positive (i.e. untreated cells exposed to CXCL12^AF647 only) control.

MT-4 cells = assay: Cytotoxicity for mock-infected (uninfected) MT-4 cells; assay type: cell-based
Experimental: as §1

[4] = Concentration needed to inhibit CXCL12 receptor binding by 50%, Jurkat cells, mean of at least two independent experiments, read-out: CXCR4 Binding IC50

Row | Structure (SMILES) | EC50 (HIV-1 NL4-3) [nM] | CC50 at 5 days [1] [nM] | IC50 (CXCR4 [2]) [nM] | EC50 (HIV-2 ROD) [nM] | IC50 (CXCR4 [3]; [4]) [nM] | cytotoxicity for the MT4 cell line (MT-4 cells) | CC50 (MT-4 cells; Concentration required to reduce the viability of mock-infected MT4 cells by 50%) [nM] | IC50 (CXCR4 [3]; span over all assays (binding, calcium, HIV-1, HIV-2), read-out: IC50 values in all assays) [nM]
1 | NCCCCN(Cc1ccccn1)c1cccc2cccnc12 [Compound 31b, N^1-(pyridin-2-ylmethyl)-N^1-(quinolin-8-yl)butane-1,4-diamine] | 380 | 9460 | 5500 | > 9460 | 36 |  |  | 
2 | c1cc(CN2CCCNCCNCCCNCC2)ccc1CN1CCCNCCNCCCNCC1 [Plerixafor, reference compound] |  | 6290 |  |  |  |  |  | 
3 | COc1cc2ccnc(CN(CCCCN)Cc3ncccc3C)c2cc1OC [Compound 24a, N1-((6,7-dimethoxyisoquinolin-1-yl)methyl)-N1-((3-methylpyridin-2-yl)methyl) butane-1,4-diamine] |  | > 100000 | 13 |  | 3.2 | lack cytotoxicity |  | 
4 | NCCCCN(Cc1nccc2ccccc12)C1CCCc2cccnc21 (stereo not shown) [Compound 19e, N1-(Isoquinolin-1-ylmethyl)-N1-(5,6,7,8-tetrahydroquinolin-8-yl)butane-1,4-diamine] |  | 26700 | 130 |  | 9.2 | lack cytotoxicity |  | 
5 | NCCCCN(Cc1ccccn1)C1CCCc2cccnc21 (stereo not shown) [Compound 20, N1-(Pyridin-2-ylmethyl)-N1-(5,6,7,8-tetrahydroquinolin-8-yl)butane-1,4-diamine] |  | 55400 |  |  |  | lack cytotoxicity |  | 
6 | NCCCCN(Cc1nccc2cc(Br)ccc12)C1CCCc2cccnc21 (stereo not shown) [Compound 19d, N1-((6-Bromoisoquinolin-1-yl)methyl)-N1-(5,6,7,8-tetrahydroquinolin-8-yl)butane-1,4-diamine] |  | 43600 | 440 |  | 26 |  |  | 
7 | Cc1cccnc1CN(CCCCN)Cc1ccccn1 [Compound 25, N1-((3-Methylpyridin-2-yl)methyl)-N1-(pyridin-2-ylmethyl)butane-1,4-diamine] |  | 79800 | 180 |  |  |  |  | 
8 | COc1ccc2c(CN(CCCCN)C3CCCc4cccnc43)nccc2c1 (stereo not shown) [Compound 19b, N1-((6-Methoxyisoquinolin-1-yl)methyl)-N1-(5,6,7,8-tetrahydroquinolin-8-yl)butane-1,4-diamine] |  | 11100 | 28 |  | 0.25 |  |  | 
9 | NCCCCN(Cc1nccc2cc(F)ccc12)C1CCCc2cccnc21 (stereo not shown) [Compound 19c, N1-((6-Fluoroisoquinolin-1-yl)methyl)-N1-(5,6,7,8-tetrahydroquinolin-8-yl)butane-1,4-diamine] |  | 18100 | 33 |  | 8.9 |  |  | 
10 | COc1ccc2c(CN(CCCCN)Cc3ncccc3C)nccc2c1 [Compound 24b, N1-((6-Methoxyisoquinolin-1-yl)methyl)-N1-((3-methylpyridin-2-yl)methyl) butane-1,4-diamine] |  | 9270 | 3850 |  | 890 |  |  | 
11 | NCCCCN(Cc1ccccc1)c1cccc2cccnc12 [Compound 31a, N^1-benzyl-N^1-(quinolin-8-yl)butane-1,4-diamine] | > 41600 | 41600 | > 50000 | > 41600 | > 100000 |  |  | 
12 | Cc1cccnc1CN(CCCCN)Cc1nccc2cc(F)ccc12 [Compound 24c, N1-((6-Fluoroisoquinolin-1-yl)methyl)-N1-((3-methylpyridin-2-yl)methyl) butane-1,4-diamine] |  | 31000 | 6.1 |  | 0.64 | lack cytotoxicity | 30800 | 0.6 to 6
13 | Cc1cccnc1CN(CCCCN)Cc1nccc2cc(Br)ccc12 [Compound 24d, N1-((6-Bromoisoquinolin-1-yl)methyl)-N1-((3-methylpyridin-2-yl)methyl) butane-1,4-diamine] |  | 29500 | 690 |  | 39 |  |  | 
14 | NCCCCN(Cc1nccc2ccccc12)c1cccc2cccnc12 [Compound 31c, N^1-(isoquinolin-1-ylmethyl)-N^1-(quinolin-8-yl)butane-1,4-diamine] | 18 | 2980 | 5 | 1.3 | 2.3 |  |  | 
15 | COc1cc2ccnc(CN(CCCCN)C3CCCc4cccnc43)c2cc1OC (stereo not shown) [Compound 19a, N1-((6,7-Dimethoxyisoquinolin-1-yl)methyl)-N1-(5,6,7,8-tetrahydroquinolin-8-yl) butane-1,4-diamine] |  | > 100000 | 25 |  | 7.2 |  |  | 
